This note sets out measurements from patent US9963472B2, “Stable pantetheine derivatives for the treatment of pantothenate kinase associated neurodegeneration (PKAN) and methods for the synthesis of such compounds” (ACIES BIO D.O.O., priority 2013, dated 2018).

Data set [1] has as its system dPANK/fbl down-regulated Drosophila-S2 cells. Put plainly: Rescue of cell survival in dPANK/fbl RNAi Drosophila S2 cells (PKAN cell model). Type of data set: cell-based. The conditions noted are these: 100 μM; for rescue of cell count defect (cell survival): triplicate. An excerpt: The down-regulation of […] ortholog in Drosophila) using RNAi approach in Drosophila S2 cells is an established in-vitro PKAN disease model (Rana, A. et al., PNAS, 2010, 107, 6988; Siudja et al., EMBO Mol med. 2011, 3, 755; Siudeja et al., PLoS One 2012, 7, e443145). Down-regulation of dPANK/fbl by RNAi, causes a decrease in the survival of cells. […] Materials and Methods: […]

For data set [2], the system named is HEK293 cells treated with HOPAN. Put plainly: Rescue of HEK293 cells in HOPAN induced PKAN model. In kind it is cell-based, human. The conditions noted are these: 100 μM, HOPAN 0.5 mM, 4 days, HEK293, vitamin B5 deficient DMEM. As to the method: Similar to Drosophila-S2 cells, the PKAN disease model can also be induced using HOPAN in mammalian cell lines. Rescue efficiency of (S)-acetyl-4′-phosphopantetheine and 4′-phosphopantetheine was studied in HOPAN induced PKAN model system, namely in mammalian HEK293 cells.
Materials and Methods: HEK293 cells were cultured in vitamin B5 deficient DMEM (Thermo Scientific) supplemented with 10% dialysed FCS (Thermo Scientific) with and without HOPAN (0.5 mM) and (S)-acetyl-4′-phosphopantetheine and 4′-phosphopantetheine for 4 days. 100 μM of (S)-acetyl-4′-phosphopantetheine and 4′-phosphopantetheine was compared for its rescue efficiency.

In the next data set the test system is Human HEK293 cells. In words: Cellular toxicity (drop in cell counts) in HEK293 cells. In kind it is cell-based. Particulars: increasing concentrations.
The test system of the next data set is protein acetylation. Put plainly: Rescue of protein acetylation defect in PKAN models. Type of data set: cell-based. An excerpt: For a variety of diseases HDAC inhibitors are being used and specifically the valproic acid is currently used in diseases ranging from cancer, to epilepsy, to neurodegeneration. The disadvantage is that valproic acid has severe side effects.

Data set [3] has as its system Drosophila-S2 cells treated with HOPAN. Put plainly: Rescue in HOPAN assay, Drosophila S2 cells. In kind it is cell-based. The conditions noted are these: 100 μM, HOPAN 0.5 mM, two days. Here is the method:
In an additional experiment, Drosophila-S2 cells treated with the chemical inhibitor HOPAN (hopanthenate, CAS 17097-76-6, IUPAC: calcium 4-[[(2R)-2,4-dihydroxy-3,3-dimethylbutanoyl]amino]butanoate). Cells treated with HOPAN also serve as a model for PKAN. Cells treated with HOPAN also show a reduction in cell viability.
Materials and Methods: Drosophila Schneider's S2 cells were cultured and subjected to HOPAN (0.5 mM) treatment with and without (S)-acetyl-4′-phosphopantetheine and 4′-phosphopantetheine for two days (Siudeja. K. et al., EMBO Mol Med. 2011, 3, 755). 100 μM of (S)-acetyl-4′-phosphopantetheine and 4′-phosphopantetheine was compared for its rescue efficiency.

Regarding `CC(C)(COP(=O)(O)O)[C@@H](O)C(=O)NCCC(=O)NCCS` [4′-phosphopantetheine], the “rescue of cell count defect (cell survival)” value in data set [1] was “rescued the cell count defect significantly”. The “reduction of HOPAN induced cell count defect” value in data set [2] is on record as “significantly reduced the HOPAN induced cell count defect”. Moreover, the “toxicity (drop in cell counts)” value in the data set with Human HEK293 cells was “less toxic compared to pantethine”.
Regarding `CC(/C=C/C(=O)NO)=C\[C@@H](C)C(=O)c1ccc(N(C)C)cc1` [Trichostatin A], the “rescue of protein acetylation defect” value in the data set on protein acetylation was “rescue the protein acetylation defect”.
Take `CCCC(CCC)C(=O)O` [valproic acid]: in the data set with protein acetylation, the “rescue of protein acetylation defect” value is recorded as “rescue the protein acetylation defect”.
Consider (S)-acetyl-4′-phosphopantetheine, for which, in data set [1], the “rescue potential compared to the other compounds” value was “superior rescue potential as compared to pantethine and 4′-phosphopantetheine”; the “rescue of cell count defect (cell survival)” value is given as “rescued the cell count defect significantly”. Moreover, the “rescue of HOPAN induced cell count defect” value in data set [3] is “significantly rescued”. Moreover, the “reduction of HOPAN induced cell count defect” value in data set [2] was “significantly reduced the HOPAN induced cell count defect”. In addition, the “toxicity (drop in cell counts)” value in the data set with Human HEK293 cells is listed as “less toxic compared to pantethine”.
